# Source: patent US5922324A, “Propolis extract with improved water-solubility” (Kabushiki Kaisha Hayashibara Seibutsu Kagaku Kenkyujo, priority 1997, dated 1999)
# Legend:
# [1] = Confirmation of insolubilized substance C (HPLC of supernatant after 101-fold dilution); type: physicochemical
# Excerpt: A propolis mass was disrupted, injected into 3 columns and fed with 50 v/v % aqueous ethanol solution by counter-current extraction method to dissolve and extract the effective ingredients of propolis. The extract was filtered to obtain a liquid propolis extract containing about 20 w/w % dry solid in a yield of about 30% of the material propolis, d.s.b.
# The pH of the sample was 5.0 when measured with a pH-meter. The sample was placed in a beaker and diluted with water by 101-fold into a dilute aqueous ethanol solution in the form of a white suspension which was then allowed to stand at 25° C. for an hour under gentle stirring conditions and centrifuged to obtain a supernatant. High-performance liquid chromatography (HPLC) was used to quantify the concentration of substance C in the supernatant according to the method as described in Bioscience, Biotechnology, and Biochemistry, Vol. 58, No. 5, pp. 945-946 (1994). As a control, the sample was diluted by 101-fold with ethanol in place of water.
# [2] = Water-solubility of substance C in propolis extract (supernatant concentration); type: physicochemical
# Protocol: The sample in Experiment 1 was mixed with an equal amount of 50 v/v % aqueous ethanol solution either with or without an adequate amount of sodium hydroxide, and the mixture with a pH 5.0 was adjusted to a pH of 5.2, 5.5, 5.8, 6.0, 6.2, 6.4, 6.8, 7.0, 7.2, 7.5 or 8.1 before prepared into an about 10 w/w % liquid propolis extract, d.s.b., as samples used in the following experiments.
# After one-month standing at 25° C., the samples were tested similarly as in Experiments 2-(1) to 2-(4) and subjected to a sensory evaluation using 12 panels.
smiles,measurement,setting,value
"CC(C)=CCc1cc(C=CC(=O)O)cc(CC=C(C)C)c1O [substance C, 3-[4-hydroxy-3,5-bis(3-methyl-2-butenyl)phenyl]-2-propenoic acid]",Concentration of substance C in water dilution relative to control diluted with ethanol,[1]; 101-fold dilution,0.06%
same,solubility kinetic,"[1]; dilute aqueous ethanol, organic solvent or mixture, 25° C., pH about 5.0 extract, 10 w/w % d.s.b. in 50 v/v % aqueous ethanol, diluted with water by about 100 folds, read-out: Concentration in which substance C dissolves in dilute aqueous ethanol solution",0.03 µg/mL
same,Concentration of substance C in supernatant of dilution diluted with ethanol (Control),"[1]; diluted with ethanol by 101-fold, control",46.7 ppm
same,Solubilization of substance C on dilution with water (in words),[1]; dilution with water into dilute aqueous ethanol solution,insolubilized most of substance C
same,Amount of substance C of the sample contained in sediments collected by centrifugation,"[1]; sediments dissolved in ethanol, after dilution with water",at least 99%
same,Water-solubility of substance C (in words),[2]; pH dependence,greatly increased when adjusted to a pH of over 5.5
same,improvement of solubility of substance C in dilute aqueous ethanol solution,[2]; pH increased from about 5.0 to 5.5-7.0,15-100 folds
